From patent US10815221B2, “Crystal forms of an androgen receptor antagonist, preparation method and use thereof” (Crystal Pharmaceutical (Suzhou) Co., Ltd., priority 2016, dated 2020)
Values after ≈ are worked out from the molar mass of the structure shown. “Also recorded” adds a separate entry of the source.

Legend:
Assay type in all cases: physicochemical
[1] = Solubility in SGF, FeSSIF and FaSSIF by HPLC
Description: High Performance Liquid Chromatography (HPLC) data in the present disclosure are collected from Agilent 1260 with diode array detector (DAD).
The HPLC method parameters for solubility in the present disclosure are as follows:
1. Column: Agilent Infinity Lab Poroshell 120 EC-C18 150*3.0 mm, 2.7 μm
2. Mobile Phase: A: 25 mmol/L KH2PO4 aqueous solution
3. Flow rate: 0.7 mL/min 4. Injection Volume: 5 μL 5. Detection wavelength: 220 nm 6. Column Temperature: 40° C. 7. Diluent: Acetonitrile/H2O (v/v, 1/1)
(§1) Samples of Form B in the present disclosure and crystalline form I disclosed in WO2016120530A1 were suspended into SGF (simulated gastric fluids, pH=1.8), FeSSIF (Fed state simulated intestinal fluids, pH=5.0) and FaSSIF (Fasted state simulated intestinal fluids, pH=6.5) to get saturated solutions. After equilibrated for 1 hour and 4 hours, concentrations of the saturated solutions were measured by HPLC.
as §1, with “C” for “B”, “into” for “into SGF (simulated gastric fluids, pH=1.8),”

[2] = Hygroscopicity by dynamic vapor sorption (DVS); conditions: for Hygroscopicity / Weight gain under 80% RH: DVS, 80% RH; for Solid Form after DVS: XRPD after DVS test
Description: Dynamic vapor sorption (DVS) was applied to test hygroscopicity of Form B, Form C and crystalline form I in the prior art with about 10 mg of samples. The DVS plot of Form B is substantially as depicted in FIG. 10 and the XRPD pattern overlay before and after DVS test of Form B is substantially as depicted in FIG. 11. The DVS plot of Form C is substantially as depicted in FIG. 12 and the XRPD pattern overlay before and after DVS test of Form C is substantially as depicted in FIG. 13. The DVS plot of crystalline form I in the prior art is substantially as depicted in FIG. 14.

[3] = Particle size distribution (laser particle size analyzer); conditions: for D10 / D50 / D90 / MV (average particle size by volume): wet process, Isopar G
Description: The particle size distribution test in the present disclosure is acquired by the S3500 laser particle size analyzer of Microtrac. Microtrac S3500 is equipped with the SDC (Sample Delivery Controller). The test is carried out by wet process, and the dispersion medium is Isopar G. The parameters are as follows:
The particle size distribution of Form B in the present disclosure and Form I disclosed in WO2016120530A1 were tested.

[4] = Storage stability of crystalline form (XRPD); conditions: for Change of Solid Form: 3 months
Description: Samples of Form B were stored under different conditions of 25° C./60% RH (open), 40° C./75% RH (open) for 3 months, and XRPD was applied to test the crystalline form.
Samples of Form C were stored at 25° C./60% RH (open) for 1 month, and XRPD was applied to test the crystalline form.

[5] = Grinding stability (XRPD before and after grinding); conditions: manually ground in a mortar for 5 minutes
Description: About 20 mg of Form C in the present disclosure and crystalline form I disclosed in WO2016120530A1 were manually ground in a mortar for 5 minutes. XRPD tests of the samples before and after grinding were carried out. The XRPD patterns of Form C were shown in FIG. 20 (top: XRPD pattern after grinding, bottom: XRPD pattern before grinding), and the XRPD patterns of crystalline form I were shown in FIG. 21 (top: XRPD pattern after grinding, bottom: XRPD pattern before grinding).

Solubility ([1]; FaSSIF pH=6.5, 1 hour) [µg/mL] | Solubility ([1]; FaSSIF pH=6.5, 4 hours) [µg/mL] | Solubility ([1]; FeSSIF pH=5.0, 1 hour) [µg/mL] | Solubility ([1]; SGF pH=1.8, 1 hour) [µg/mL] | Solubility ([1]; SGF pH=1.8, 4 hours) [µg/mL] | solubility at 4 h ([1]; fed state simulated intestinal fluid (FeSSIF), pH 5, fessif, thermodynamic from solid, FeSSIF pH=5.0, 4 hours) [µg/mL] | Hygroscopicity [2] | Weight gain under 80% RH [2] [%] | Solid Form after DVS [2] | Particle size distribution pattern [3] | D10 [3] [μm] | D50 [3] [μm] | D90 [3] [μm] | MV (average particle size by volume) [3] [μm] | Time the form keeps stable ([4]; 25° C./60% RH) | Change of Solid Form ([4]; 25° C./60% RH (open)) | Time the form keeps stable ([4]; 40° C./75% RH) | Change of Solid Form ([4]; 40° C./75% RH (open)) | Solubility ([1]; FeSSIF pH=5.0, 4 hours) [µg/mL] | SMILES | Crystallinity after grinding [5]
3.0 (≈ 7.52 µM) | 0.5 (≈ 1.25 µM) | 408.1 (≈ 1020 µM) | 62.7 (≈ 157 µM) | 33.5 (≈ 84 µM) | 288 (≈ 722 µM) | slightly hygroscopic | 0.93 | remain unchanged; also recorded: Form B | unimodal and normal distribution | 1.20 | 2.73 | 5.49 | 3.12 | at least 3 months | physically stable | at least 3 months | physically stable |  | CC(O)c1cc(C(=O)N[C@@H](C)Cn2ccc(-c3ccc(C#N)c(Cl)c3)n2)n[nH]1 (single isomer, unassigned) [Form B] | 
39.0 (≈ 97.8 µM) | 35.5 (≈ 89 µM) | 469.6 (≈ 1180 µM) |  |  |  | slightly hygroscopic | 1.60 | remain unchanged; also recorded: Form C |  |  |  |  |  | at least 1 month |  |  |  | 163.1 (≈ 409 µM) | CC(O)c1cc(C(=O)N[C@@H](C)Cn2ccc(-c3ccc(C#N)c(Cl)c3)n2)n[nH]1 (single isomer, unassigned) [Form C] | remains good crystallinity after grinding
1.0 (≈ 2.51 µM) | 0.1 (≈ 0.251 µM) | 183.1 (≈ 459 µM) | 14.0 (≈ 35.1 µM) | 9.9 (≈ 24.8 µM) |  | hygroscopic | >2.37 |  | bimodal distribution | 24.97 | 100.5 | 297.4 | 136.1 |  |  |  |  | 206.3 (≈ 517 µM) | CC(O)c1cc(C(=O)N[C@@H](C)Cn2ccc(-c3ccc(C#N)c(Cl)c3)n2)n[nH]1 (some centres unmarked) [Crystalline form I, reference compound] | decreased significantly
